Source: PMC7377239, “Cardiovascular Effects of Polychlorinated Biphenyls and Their Major Metabolites” (Environmental Health Perspectives, 2020)
Structures can show the parent of a compound that is named as a salt. Where two headings read alike, the source gives them in different places.

Test system: HUVECs
Test: Tube formation (tubulogenesis) assay in HUVECs, 18 h
Format: cell-based, human
Conditions: Homo sapiens, HUVEC, 18 h; for activity at 0.1 µM: 0.10 µM
Description: Similar to the cultivation of iCell®-endothelial cells, HUVEC maintenance and experimentation are detailed elsewhere ([Iwata et al. 2017]). Briefly, HUVECs were thawed, seeded, and grown in T75 tissue culture flasks in Medium 199 with EGM™-2 BulletKits™. HUVECs were incubated at regular cell culture conditions, 37°C and 5% CO2 , and passaged every 2–3 d using TrypLE™ Express. To ensure adequate endothelial function, experiments were performed with cells between passages 1 and 5.
Tube formation assays were performed on Geltrex™ LDEV-free reduced growth factor basement membrane using both iCell®-endothelial cells and HUVECs in 384-well format exactly as detailed in Iwata et al. ([2017]). Negative controls included media-only and vehicle control (i.e., 0.5% vol/vol DMSO in cell culture media) wells. Positive assay controls were consistent with previously published reports ([Iwata et al. 2017]) and included TAB ( 50μM ) as a cytotoxic control, and nocodazole ( 0.01–1μM ), suramin ( 0.5–50μM ), histamine ( 0.1–100μM ), and chloroquine ( 1–500μM ) as chemicals associated with specific effects on ECs. Each test chemical was screened in triplicate for each concentration. Briefly, for iCell®-endothelial cells, starvation media consisted of VascuLife® basal medium with 4 mM L-glutamine LifeFactor and 0.1% iCell®-endothelial cells medium supplement. To counter dilution effects, a 2× concentration of the HUVEC maintenance medium supplemented with additional VEGF was created (EGM™-2 BulletKits™ at 2× concentration; also the VEGF component was replaced with 12.5 ng/mL VEGF). Geltrex™ LDEV-free reduced growth factor basement membrane was thawed overnight and dispensed into 384-well plates ( 10μL/well ) with tapping and rotating to evenly coat. The plates were incubated for 1 h in a cell culture incubator at 37°C and 5% CO2 . A 2× PCB plate (containing all of the PCBs and metabolites in dose–response) was prepared in basal media and added, 25μL per well, to the Geltrex™ coated plates. On separate plates, cells were seeded 7,500 (iPSC- ECs) or 3,500 (HUVEC) cells/well. Cells were exposed to chemicals overnight at 37°C and 5% CO2 and stained with 3× concentration of calcein AM ( 25μL /well, 6μmol/L ) for 15 min before imaging. Images were captured at 4× magnification with the FITC filter (calcein AM). Images were analyzed with the angiogenesis module software within MetaXpress™ (Molecular Devices).
Phenotypic responses were quantitatively assessed using concentration–response modeling as detailed elsewhere ([Sirenko et al. 2017]). Briefly, phenotypic readouts were normalized to vehicle controls and fit to a four-parameter logistic model in R studio software (version 3.1.1; R Development Core Team). Following EPA guidance on dose–response modeling, a cutoff of one standard deviation across means of vehicle control (i.e., 0.5% vol/vol DMSO in cell culture media) wells was applied to determine the point-of-departure (POD) values ([U.S. EPA 2012]). In the absence of a concentration–response, the highest tested concentration (i.e., 100μM ) was assigned as “no observable adverse effect level.” The concentration–response assessment R script, as well as templates for vehicle and concentration–response data, are available as a supplement to Sirenko et al. ([2017]). The ability of physicochemical properties to predict differences in PODs were evaluated by multiregression and mixed-effects modeling using R.

[1] = HUVECs, 0.00 µM = 100.00, read-out: huvec.mtl.18hr
[2] = HUVECs, 0.00 µM = 100.00, read-out: huvec.tlps.18hr
[3] = HUVECs, 0.00 µM = 100.00, read-out: huvec.tta.18hr
[4] = HUVECs, 0.00 µM = 100.00, read-out: huvec.ttl.18hr
[5] = HUVECs, top concentration 100.00 µM, read-out: huvec.mtl.18hr POD
[6] = HUVECs, top concentration 100.00 µM, read-out: huvec.tlps.18hr POD
[7] = HUVECs, top concentration 100.00 µM, read-out: huvec.tta.18hr POD
[8] = HUVECs, top concentration 100.00 µM, read-out: huvec.ttl.18hr POD

Compound: O=S(=O)(O)Oc1cc(-c2ccccc2)ccc1Cl [3-yl PCB 3 sulfate]
- activity at 0.01 µM [1]: 95%
- activity at 0.01 µM [2]: 89.1%
- activity at 0.01 µM [3]: 78%
- activity at 0.01 µM [4]: 73.3%
- activity at 0.1 µM [1]: 100%
- activity at 0.1 µM [2]: 109%
- activity at 0.1 µM [3]: 141%
- activity at 0.1 µM [4]: 137%
- activity at 1 µM [1]: 94.1%
- activity at 1 µM [2]: 116%
- activity at 1 µM [3]: 124%
- activity at 1 µM [4]: 123%
- activity at 10 µM [1]: 91.9%
- activity at 10 µM [2]: 112%
- activity at 10 µM [3]: 114%
- activity at 10 µM [4]: 110%
- activity at 100 µM [1]: 62.3%
- activity at 100 µM [2]: 58.1%
- activity at 100 µM [3]: 63.7%
- activity at 100 µM [4]: 61.1%
- minimal effective concentration [5]: 11.5 µM
- minimal effective concentration [6]: 65.8 µM
- minimal effective concentration [7]: 100 µM
- minimal effective concentration [8]: 52.1 µM

Compound: Clc1ccc(Cl)c(-c2cc(Cl)ccc2Cl)c1 [PCB52]
- activity at 0.01 µM [1]: 105%
- activity at 0.01 µM [2]: 114%
- activity at 0.01 µM [3]: 103%
- activity at 0.01 µM [4]: 94.1%
- activity at 0.1 µM [1]: 111%
- activity at 0.1 µM [2]: 126%
- activity at 0.1 µM [3]: 105%
- activity at 0.1 µM [4]: 94.2%
- activity at 1 µM [1]: 108%
- activity at 1 µM [2]: 121%
- activity at 1 µM [3]: 86.8%
- activity at 1 µM [4]: 81.6%
- activity at 10 µM [1]: 100%
- activity at 10 µM [2]: 95%
- activity at 10 µM [3]: 99.7%
- activity at 10 µM [4]: 94.2%
- activity at 100 µM [1]: 97.2%
- activity at 100 µM [2]: 114%
- activity at 100 µM [3]: 94.8%
- activity at 100 µM [4]: 83.5%
- minimal effective concentration [5]: 100 µM
- minimal effective concentration [6]: 100 µM
- minimal effective concentration [7]: 100 µM
- minimal effective concentration [8]: 100 µM

Compound: Oc1ccc(-c2ccc(Cl)cc2)cc1 [4'-OH PCB3]
- activity at 0.01 µM [1]: 101%
- activity at 0.01 µM [2]: 106%
- activity at 0.01 µM [3]: 113%
- activity at 0.01 µM [4]: 119%
- activity at 0.1 µM [1]: 94%
- activity at 0.1 µM [2]: 89.7%
- activity at 0.1 µM [3]: 88.3%
- activity at 0.1 µM [4]: 93.3%
- activity at 1 µM [1]: 93.7%
- activity at 1 µM [2]: 76.2%
- activity at 1 µM [3]: 98.5%
- activity at 1 µM [4]: 102%
- activity at 10 µM [1]: 72.2%
- activity at 10 µM [2]: 66.1%
- activity at 10 µM [3]: 68.8%
- activity at 10 µM [4]: 71.7%
- activity at 100 µM [1]: 76.3%
- activity at 100 µM [2]: 34%
- activity at 100 µM [3]: 11.6%
- activity at 100 µM [4]: 8.84%
- minimal effective concentration [5]: 1.21 µM
- minimal effective concentration [6]: 0.51 µM
- minimal effective concentration [7]: 5.36 µM
- minimal effective concentration [8]: 5.16 µM

Compound: Oc1cc(Cl)cc(-c2cccc(Cl)c2)c1 [5-OH-PCB 11]
- minimal effective concentration (tube formation mtl, read-out: POD huvec.mtl.18hr): 6.98 µM
- minimal effective concentration (tube formation tlps, read-out: POD huvec.tlps.18hr): 100 µM
- minimal effective concentration (tube formation tta, read-out: POD huvec.tta.18hr): 100 µM
- minimal effective concentration (tube formation ttl, read-out: POD huvec.ttl.18hr): 32.7 µM
